What was measured:
[1] = tested on: Diabrotica balteata (Corn Root Worm); assay: Example B3: Diabrotica balteata, sprayed maize sprouts, mortality; assay type: in vivo; details: 96 h, application rate of 200 ppm, L2 larvae, 4 days after infestation
Method: (§1) Maize sprouts placed onto an agar layer in 24-well microtiter plates were treated with aqueous test solutions prepared from 10,000 ppm DMSO stock solutions by spraying. After drying, the plates were infested with L2 larvae (6 to 10 per well). The samples were assessed for mortality 4 days after infestation.

[2] = tested on: Frankliniella occidentalis (Western Flower Thrips); assay: Example B7: Frankliniella occidentalis, sprayed sunflower leaf discs, mortality; assay type: in vivo; details: foliar, 168 h, application rate of 200 ppm, population of mixed ages, 7 days after infestation
Method: Sunflower leaf discs were placed on agar in 24-well microtiter plates and sprayed with aqueous test solutions prepared from 10,000 DMSO stock solutions. After drying the leaf discs were infested with a Frankliniella population of mixed ages. The samples were assessed for mortality 7 days after infestation.

[3] = tested on: Spodoptera littoralis (Egyptian Cotton Leaf Worm); assay: Example B20: Spodoptera littoralis, compound in agar absorbed by lettuce roots, mortality; assay type: in vivo; details: 144 h, test rate of 12.5 ppm, uptake by lettuce roots, Spodoptera eggs, 6 days after infestation
Text: Test compounds were applied by pipette prepared from 10,000 ppm DMSO stock solutions into 24-well plates and mixed with agar. Lettuce seeds were placed onto the agar and the multi well plate was closed by another plate which contained also agar. After 7 days the compound was absorbed by the roots and the lettuce grew into the lid plate. The lettuce leaves were then cut off into the lid plate.
Spodoptera eggs were pipetted through a plastic stencil onto a humid gel blotting paper and the lid plate was closed with it. The samples were assessed for mortality 6 days after infestation.

[4] = tested on: Spodoptera littoralis (Egyptian Cotton Leaf Worm); assay: Example B16: Spodoptera littoralis, sprayed cotton leaf discs, mortality; assay type: in vivo; details: foliar, 72 h, application rate of 200 ppm, L1 larvae, 3 days after infestation
Method: Cotton leaf discs were placed onto agar in 24-well microtiter plates and sprayed with aqueous test solutions prepared from 10,000 ppm DMSO stock solutions. After drying the leaf discs were infested with five L1 larvae. The samples were assessed for mortality 3 days after infestation.

[5] = tested on: Euschistus heros (Neotropical Brown Stink Bug); assay: Example B6: Euschistus heros, sprayed soybean leaves, mortality and growth inhibition; assay type: in vivo; details: 120 h, application rate of 200 ppm, N2 nymphs, 5 days after infestation, read-out: effect in at least one of the two categories (mortality or growth inhibition)
Method: (§2) Soybean leaves on agar in 24-well microtiter plates were sprayed with aqueous test solutions prepared from 10,000 ppm DMSO stock solutions. After drying the leaves were infested with N2 nymphs. The samples were assessed for mortality and growth inhibition in comparison to untreated samples 5 days after infestation.

[6] = tested on: Euschistus heros (Neotropical Brown Stink Bug); assay: Example B4: Euschistus heros, sprayed soybean leaves, growth inhibition; assay type: in vivo; details: 120 h, application rate of 200 ppm, N2 nymphs, 5 days after infestation
Method: as §2, with “for” for “for mortality and”, “infestation. Control of Euschistus heros by a test sample is given when the growth inhibition is higher than the untreated sample.” for “infestation.”

[7] = tested on: Euschistus heros (Neotropical Brown Stink Bug); assay: Example B5: Euschistus heros, sprayed soybean leaves, mortality; assay type: in vivo; details: 120 h, application rate of 200 ppm, N2 nymphs, 5 days after infestation
Method: Soybean leaves on agar in 24-well microtiter plates were sprayed with aqueous test solutions prepared from 10,000 ppm DMSO stock solutions. After drying the leaves were infested with N2 nymphs. The samples were assessed for mortality 5 days after infestation.

[8] = tested on: Plutella xylostella (Diamond Back Moth); assay: Example B13: Plutella xylostella, treated artificial diet, mortality and growth inhibition; assay type: in vivo; details: 120 h, application rate of 200 ppm, L2 larvae, 5 days after infestation, read-out: effect in at least one of the two categories (mortality or growth inhibition)
Method: (§3) 24-well microtiter plates with artificial diet were treated with aqueous test solutions prepared from 10,000 ppm DMSO stock solutions by pipetting. After drying, the plates were infested with L2 larvae (10 to 15 per well). The samples were assessed for mortality and growth inhibition in comparison to untreated samples 5 days after infestation.

[9] = tested on: Spodoptera littoralis (Egyptian Cotton Leaf Worm); assay: Example B19: Spodoptera littoralis, compound in agar absorbed by lettuce roots, anti-feedant effect; assay type: in vivo; details: 144 h, test rate of 12.5 ppm, uptake by lettuce roots, Spodoptera eggs, 6 days after infestation, read-out: anti-feeding
Text: (§4) Test compounds were applied by pipette prepared from 10,000 ppm DMSO stock solutions into 24-well plates and mixed with agar. Lettuce seeds were placed onto the agar and the multi well plate was closed by another plate which contained also agar. After 7 days the compound was absorbed by the roots and the lettuce grew into the lid plate. The lettuce leaves were then cut off into the lid plate. Spodoptera eggs were pipetted through a plastic stencil onto a humid gel blotting paper and the lid plate was closed with it. The samples were assessed for anti-feedant effect in comparison to untreated samples 6 days after infestation.

[10] = tested on: Spodoptera littoralis (Egyptian Cotton Leaf Worm); assay: Example B17: Spodoptera littoralis, sprayed cotton leaf discs, mortality, anti-feeding effect and growth inhibition; assay type: in vivo; details: foliar, 72 h, application rate of 200 ppm, L1 larvae, 3 days after infestation, read-out: control (at least one of mortality, anti-feedant effect, growth inhibition)
Method: (§5) Cotton leaf discs were placed onto agar in 24-well microtiter plates and sprayed with aqueous test solutions prepared from 10,000 ppm DMSO stock solutions. After drying the leaf discs were infested with five L1 larvae. The samples were assessed for mortality, anti-feeding effect, and growth inhibition in comparison to untreated samples 3 days after infestation. Control of Spodoptera littoralis by a test sample is given when at least one of the categories mortality, anti-feedant effect, and growth inhibition is higher than the untreated sample.

[11] = tested on: Spodoptera littoralis (Egyptian Cotton Leaf Worm); assay: Example B18: Spodoptera littoralis, compound in agar absorbed by lettuce roots, mortality, anti-feedant effect and growth inhibition; assay type: in vivo; details: 144 h, test rate of 12.5 ppm, uptake by lettuce roots, Spodoptera eggs, 6 days after infestation, read-out: effect in at least one of the three categories (mortality, anti-feeding, or growth inhibition)
Text: as §4, with “pipette” for “pipette prepared”, “for mortality,” for “for”, “effect and growth inhibition” for “effect”

[12] = tested on: Spodoptera littoralis (Egyptian Cotton Leaf Worm); assay: Example B14: Spodoptera littoralis, sprayed cotton leaf discs, anti-feeding effect; assay type: in vivo; details: foliar, 72 h, application rate of 200 ppm, L1 larvae, 3 days after infestation
Method: as §5, with “for” for “for mortality,”, “effect” for “effect, and growth inhibition”, “when” for “when at least one of”, “the” for “the categories mortality,”

[13] = tested on: Plutella xylostella (Diamond Back Moth); assay: Example B12: Plutella xylostella, treated artificial diet, mortality; assay type: in vivo; details: 120 h, application rate of 200 ppm, L2 larvae, 5 days after infestation
Method: 24-well microtiter plates with artificial diet were treated with aqueous test solutions prepared from 10,000 ppm DMSO stock solutions by pipetting. After drying, the plates were infested with L2 larvae (10 to 15 per well). The samples were assessed for mortality 5 days after infestation.

[14] = tested on: Diabrotica balteata (Corn Root Worm); assay: Example B2: Diabrotica balteata, sprayed maize sprouts, mortality and growth inhibition; assay type: in vivo; details: 96 h, application rate of 200 ppm, L2 larvae, 4 days after infestation, read-out: effect in at least one of the two categories (mortality or growth inhibition)
Method: as §1, with “mortality and growth inhibition in comparison to untreated samples” for “mortality”

[15] = tested on: Aedes aegypti (Yellow Fever Mosquito); assay: Example B23: Aedes aegypti, dry deposits in 12 well tissue culture plates, control; assay type: in vivo; details: application rate of 200 ppm in ethanol, adult females, after 48 h and/or 24 h
Method: Test solutions, at an application rate of 200 ppm in ethanol, were applied to 12 well tissue culture plates. Once the deposits were dry, five, two to five day old adult female Aedes aegypti were added to each well, and sustained with a 10% sucrose solution in a cotton wool plug. Assessment of knockdown was made one hour after introduction, and mortality was assessed at 24 and 48 hours after introduction.

[16] = tested on: Plutella xylostella (Diamond Back Moth); assay: Example B10: Plutella xylostella, treated artificial diet, growth inhibition; assay type: in vivo; details: 120 h, application rate of 200 ppm, L2 larvae, 5 days after infestation
Method: as §3, with “for” for “for mortality and”, “infestation. Control of Plutella xylostella by a test sample is given when the growth inhibition is higher than the untreated sample.” for “infestation.”

[17] = tested on: Tetranychus urticae (Two-Spotted Spider Mite); assay: Example B21: Tetranychus urticae, sprayed bean leaf discs, mortality; assay type: in vivo; details: foliar, 192 h, application rate of 200 ppm, mixed population (mobile stages), 8 days after infestation
Method: Bean leaf discs on agar in 24-well microtiter plates were sprayed with aqueous test solutions prepared from 10,000 ppm DMSO stock solutions. After drying the leaf discs were infested with a mite population of mixed ages. The samples were assessed for mortality on mixed population (mobile stages) 8 days after infestation.

[18] = tested on: Myzus persicae (Green Peach Aphid); assay: Example B8: Myzus persicae, sprayed sunflower leaf discs, mortality; assay type: in vivo; details: foliar, 144 h, application rate of 200 ppm, leaf disc spray, aphid population of mixed ages, 6 days after infestation
Method: Sunflower leaf discs were placed onto agar in a 24-well microtiter plate and sprayed with aqueous test solutions prepared from 10,000 ppm DMSO stock solutions. After drying, the leaf discs were infested with an aphid population of mixed ages. The samples were assessed for mortality 6 days after infestation.

[19] = tested on: Myzus persicae (Green Peach Aphid); assay: Example B9: Myzus persicae, roots of pea seedlings in test solution, mortality; assay type: in vivo; details: 144 h, test rate of 24 ppm, 6 days
Method: Roots of pea seedlings infested with an aphid population of mixed ages were placed directly into aqueous test solutions prepared from 10,000 DMSO stock solutions. The samples were assessed for mortality 6 days after placing seedlings into test solutions.

[20] = tested on: Spodoptera littoralis (Egyptian Cotton Leaf Worm); assay: Example B15: Spodoptera littoralis, sprayed cotton leaf discs, growth inhibition; assay type: in vivo; details: foliar, 72 h, application rate of 200 ppm, L1 larvae, 3 days after infestation, read-out: control (growth inhibition)
Method: as §5, with “for” for “for mortality, anti-feeding effect, and”, “when” for “when at least one of”, “the” for “the categories mortality, anti-feedant effect, and”

Row | Compound | mortality at 200 ppm [1] | mortality at 12.5 ppm [3] | mortality at 200 ppm [4] | percent effect (mortality or growth inhibition) at 200 ppm [5] | inhibition at 200 ppm [6] | mortality at 200 ppm [7] | percent effect (mortality or growth inhibition) at 200 ppm [8] | pest or weed control at 12.5 ppm [9] | percent control (mortality, anti-feedant effect or growth inhibition) at 200 ppm [10] | percent effect (mortality, anti-feeding or growth inhibition) at 12.5 ppm [11] | pest or weed control at 200 ppm [12] | mortality at 200 ppm [13] | percent effect (mortality or growth inhibition) at 200 ppm [14] | inhibition at 200 ppm [16] | mortality at 200 ppm [18] | also measured
1 | CCS(=O)(=O)c1cc(-c2ccc(Cl)cc2)cnc1-c1cn2cnc(C(F)(F)F)cc2n1 [Compound P5, 2-[5-(4-chlorophenyl)-3-ethylsulfonyl-2-pyridyl]-7-(trifluoromethyl)imidazo [1,2-c]pyrimidine] | ≥ 80% | ≥ 80% | ≥ 80% | ≥ 80% | ≥ 80% | ≥ 80% | ≥ 80% | ≥ 80% | ≥ 80% | ≥ 80% | ≥ 80% | ≥ 80% | ≥ 80% | – | – | mortality at 200 ppm [2]: ≥ 80%
2 | CCS(=O)(=O)c1cc(-c2cc(F)cc(F)c2)cnc1-c1cn2cnc(C(F)(F)F)cc2n1 [Compound P14] | ≥ 80% | ≥ 80% | ≥ 80% | ≥ 80% | – | ≥ 80% | ≥ 80% | ≥ 80% | ≥ 80% | ≥ 80% | ≥ 80% | ≥ 80% | ≥ 80% | ≥ 80% | ≥ 80% | pest or weed control at 200 ppm [15]: ≥ 80%; mortality at 200 ppm [17]: ≥ 80%
3 | CCS(=O)(=O)c1cc(CC#N)cnc1-c1cn2cnc(C(F)(F)F)cc2n1 [Compound P30, 2-[5-ethylsulfonyl-6-[7-(trifluoromethyl)imidazo[1,2-c]pyrimidin-2-yl]-3-pyridyl]acetonitrile] | ≥ 80% | – | – | ≥ 80% | – | ≥ 80% | ≥ 80% | – | – | – | – | – | ≥ 80% | ≥ 80% | – | mortality at 24 ppm [19]: ≥ 80%
4 | C=Cc1cnc(-c2cn3cnc(C(F)(F)F)cc3n2)c(S(=O)(=O)CC)c1 [Example H6, 2-(3-ethylsulfonyl-5-vinyl-2-pyridyl)-7-(trifluoromethyl)imidazo[1,2-c]pyrimidine] | – | – | – | – | – | – | – | – | – | – | – | – | – | – | – | melting point: 174 to 176 °C
5 | CCS(=O)(=O)c1cc(C2(C#N)CC2)cnc1-c1cn2cnc(C(F)(F)F)cc2n1 [Compound P8, 1-[5-ethylsulfonyl-6-[7-(trifluoromethyl)imidazo[1,2-c]pyrimidin-2-yl]-3-pyridyl]cyclopropanecarbonitrile] | ≥ 80% | – | ≥ 80% | ≥ 80% | ≥ 80% | ≥ 80% | ≥ 80% | – | ≥ 80% | – | ≥ 80% | ≥ 80% | ≥ 80% | ≥ 80% | ≥ 80% | inhibition at 200 ppm [20]: ≥ 80%

Source: patent publication US10645928B2, “Pesticidally active polycyclic derivatives with sulfur containing substituents” (Syngenta Participations AG, priority 2014, dated 2020)
